Laboratory results: patent publication US20180265515A1 (Genentech, Inc., priority 2015, published 2018)

How the values were obtained:
[1] = target: T1, isolated recombinant JAK2 kinase domain (Homo sapiens, UniProt O60674); test: JAK2 enzyme assay (Caliper LabChip, Ki); format: biochemical; conditions: 25 μM ATP
T1 construct: The activity of the isolated recombinant JAK1 and JAK2 kinase domain was measured
In short: (§1)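 Ki values fitted with Morrison tight-binding equation adjusted for ATP-competitive inhibition, using product-to-total peptide ratio read by Caliper LabChip. Reactions: isolated JAK1 or JAK2 kinase domain with N-terminal 5-carboxyfluorescein JAK3-derived peptide, 22° C for 30 min, quenched by EDTA.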

[2] = target: T2, isolated recombinant JAK1 kinase domain (Homo sapiens, UniProt P23458); test: JAK1 enzyme assay (Caliper LabChip, Ki); format: biochemical; conditions: recombinant JAK1 kinase domain, 25 μM ATP
T2 construct: The activity of the isolated recombinant JAK1 and JAK2 kinase domain was measured
In short: as §1

[3] = tested on: JAK1-dependent STAT6 phosphorylation downstream of IL-13 stimulation in BEAS-2B human bronchial epithelial cells; test: JAK1 pathway assay in BEAS-2B cells (IL-13 stimulated STAT6 phosphorylation, MSD); format: cell-based; conditions: read-out: P-STAT6 BEAS2B + IL13 IC50
In short: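 BEAS-2B human bronchial epithelial cells, plated the day before in complete growth medium, were preincubated with compound for 1 hr at 37° C (0.2% DMSO final), then stimulated with IL-13 at its EC90 for 15 min. STAT6 phosphorylation in lysates was read by MSD; EC50 was taken as 50% inhibition versus DMSO control.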

T1 sequence (O60674 849-1124 limits assumed): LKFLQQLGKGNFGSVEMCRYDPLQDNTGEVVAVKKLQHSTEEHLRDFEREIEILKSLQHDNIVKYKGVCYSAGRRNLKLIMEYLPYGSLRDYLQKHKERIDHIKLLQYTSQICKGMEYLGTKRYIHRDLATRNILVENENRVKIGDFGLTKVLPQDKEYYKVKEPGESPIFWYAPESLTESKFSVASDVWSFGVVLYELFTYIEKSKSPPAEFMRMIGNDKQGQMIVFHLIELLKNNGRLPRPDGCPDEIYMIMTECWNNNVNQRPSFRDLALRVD
T2 sequence (P23458 875-1153 limits assumed): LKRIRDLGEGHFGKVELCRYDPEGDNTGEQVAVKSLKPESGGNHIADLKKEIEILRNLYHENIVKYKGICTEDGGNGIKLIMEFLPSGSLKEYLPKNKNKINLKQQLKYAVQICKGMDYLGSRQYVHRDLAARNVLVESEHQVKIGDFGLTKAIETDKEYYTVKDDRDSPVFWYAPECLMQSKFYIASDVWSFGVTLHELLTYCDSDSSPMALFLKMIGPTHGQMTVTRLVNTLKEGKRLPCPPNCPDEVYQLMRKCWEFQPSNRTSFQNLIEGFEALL

CC(C)Sc1ccc(OC(F)F)c(-c2nn(CC(=O)N3CCC(C)(N4CCOCC4)CC3)cc2NC(=O)c2cnn3cccnc23)c1 [Example 132, N-[3-[2-(difluoromethoxy)-5-isopropylsulfanyl-phenyl]-1-[2-(4-methyl-4-morpholino-1-piperidyl)-2-oxo-ethyl]pyrazol-4-yl]pyrazolo[1,5-a]pyrimidine-3-carboxamide]
Ki [1]: 1.2 nM
Ki [2]: 0.67 nM
IC50 [3]: 36 nM

CC(C)Sc1ccc(OC(F)F)c(-c2nn(CC(=O)N3CCN(CC4CCOCC4)CC3)cc2NC(=O)c2cnn3cccnc23)c1 [Example 135, N-[3-[2-(difluoromethoxy)-5-isopropylsulfanyl-phenyl]-1-[2-oxo-2-[4-(tetrahydropyran-4-ylmethyl)piperazin-1-yl]ethyl]pyrazol-4-yl]pyrazolo[1,5-a]pyrimidine-3-carboxamide]
Ki [1]: 0.87 nM
Ki [2]: 0.43 nM
IC50 [3]: 24 nM

CC(C)Sc1ccc(OC(F)F)c(-c2nn(CC(=O)N3CCC(CN4CCOCC4)CC3)cc2NC(=O)c2cnn3cccnc23)c1 [Example 136, N-[3-[2-(difluoromethoxy)-5-isopropylsulfanyl-phenyl]-1-[2-[4-(morpholinomethyl)-1-piperidyl]-2-oxo-ethyl]pyrazol-4-yl]pyrazolo[1,5-a]pyrimidine-3-carboxamide]
Ki [1]: 1.2 nM
Ki [2]: 0.49 nM
IC50 [3]: 20 nM

CC(C)Sc1ccc(OC(F)F)c(-c2nn(CC(=O)N3CCC(C(=O)N4CCN(C)CC4)CC3)cc2NC(=O)c2cnn3cccnc23)c1 [Example 137, N-[3-[2-(difluoromethoxy)-5-isopropylsulfanyl-phenyl]-1-[2-[4-(4-methylpiperazine-1-carbonyl)-1-piperidyl]-2-oxo-ethyl]pyrazol-4-yl]pyrazolo[1,5-a]pyrimidine-3-carboxamide]
Ki [1]: 1.5 nM
Ki [2]: 0.5 nM
IC50 [3]: 66 nM

CC(C)Sc1ccc(OC(F)F)c(-c2nn(CC(=O)N3CCC(N4CC[S+]([O-])CC4)CC3)cc2NC(=O)c2cnn3cccnc23)c1 [Example 138, N-[3-[2-(difluoromethoxy)-5-isopropylsulfanyl-phenyl]-1-[2-oxo-2-[4-(1-oxo-1,4-thiazinan-4-yl)-1-piperidyl]ethyl]pyrazol-4-yl]pyrazolo[1,5-a]pyrimidine-3-carboxamide]
Ki [1]: 0.17 nM
Ki [2]: 0.22 nM
IC50 [3]: 250 nM

CC(C)Sc1ccc(OC(F)F)c(-c2nn(CC(=O)N3CCC(N4CCn5cncc5C4)CC3)cc2NC(=O)c2cnn3cccnc23)c1 [Example 139, N-[3-[2-(difluoromethoxy)-5-isopropylsulfanyl-phenyl]-1-[2-[4-(6,8-dihydro-5H-imidazo[1,5-a]pyrazin-7-yl)-1-piperidyl]-2-oxo-ethyl]pyrazol-4-yl]pyrazolo[1,5-a]pyrimidine-3-carboxamide]
Ki [1]: 0.84 nM
Ki [2]: 0.51 nM
IC50 [3]: 140 nM

CC(C)Sc1ccc(OC(F)F)c(-c2nn(CC(=O)N3CCN(CC4CCN(CC(=O)N(C)C)CC4)CC3)cc2NC(=O)c2cnn3cccnc23)c1 [Example 140, N-[3-[2-(difluoromethoxy)-5-isopropylsulfanyl-phenyl]-1-[2-[4-[[1-[2-(dimethylamino)-2-oxo-ethyl]-4-piperidyl]methyl]piperazin-1-yl]-2-oxo-ethyl]pyrazol-4-yl]pyrazolo[1,5-a]pyrimidine-3-carboxamide]
Ki [1]: 1.7 nM
Ki [2]: 0.63 nM
IC50 [3]: 51 nM

CC(C)Sc1ccc(OC(F)F)c(-c2nn(CC(=O)N3CCN(CC4CCN(CC(=O)N5CCOCC5)CC4)CC3)cc2NC(=O)c2cnn3cccnc23)c1 [Example 141, N-[3-[2-(difluoromethoxy)-5-isopropylsulfanyl-phenyl]-1-[2-[4-[[1-(2-morpholino-2-oxo-ethyl)-4-piperidyl]methyl]piperazin-1-yl]-2-oxo-ethyl]pyrazol-4-yl]pyrazolo[1,5-a]pyrimidine-3-carboxamide]
Ki [1]: 1.9 nM
Ki [2]: 0.78 nM
IC50 [3]: 36 nM

CC(C)Sc1ccc(OC(F)F)c(-c2nn(CC(=O)N3CCN(C4CCN(CC(=O)N(C)C)CC4)CC3)cc2NC(=O)c2cnn3cccnc23)c1 [Example 142, N-[3-[2-(difluoromethoxy)-5-isopropylsulfanyl-phenyl]-1-[2-[4-[1-[2-(dimethylamino)-2-oxo-ethyl]-4-piperidyl]piperazin-1-yl]-2-oxo-ethyl]pyrazol-4-yl]pyrazolo[1,5-a]pyrimidine-3-carboxamide]
Ki [1]: 2 nM
Ki [2]: 0.88 nM
IC50 [3]: 110 nM

CC(C)Sc1ccc(OC(F)F)c(-c2nn(CC(=O)N3CCC(N4CCN(C5COC5)CC4)CC3)cc2NC(=O)c2cnn3cccnc23)c1 [Example 143]
Ki [1]: 2.5 nM
Ki [2]: 0.92 nM
IC50 [3]: 89 nM

CC(C)Sc1ccc(OC(F)F)c(-c2nn(C)cc2NC(=O)c2cnn3cccnc23)c1 [Example 144, N-[3-[2-(difluoromethoxy)-5-(propan-2-ylsulfanyl)phenyl]-1-methyl-1H-pyrazol-4-yl]pyrazolo[1,5-a]pyrimidine-3-carboxamide]
Ki [1]: 0.14 nM
Ki [2]: 0.25 nM
IC50 [3]: 5.6 nM

CNC(=O)[C@@H]1CCCN1C1CCN(C(=O)Cn2cc(NC(=O)c3cnn4cccnc34)c(-c3cc(SC(C)C)ccc3OC(F)F)n2)CC1 [Example 145, N-[3-[2-(difluoromethoxy)-5-isopropylsulfanyl-phenyl]-1-[2-[4-[(2S)-2-(methylcarbamoyl)pyrrolidin-1-yl]-1-piperidyl]-2-oxo-ethyl]pyrazol-4-yl]pyrazolo[1,5-a]pyrimidine-3-carboxamide]
Ki [1]: 1.6 nM
Ki [2]: 0.6 nM
IC50 [3]: 100 nM

CC(C)Sc1ccc(OC(F)F)c(-c2nn(CC(=O)N3CCC(N4CCn5ccnc5C4)CC3)cc2NC(=O)c2cnn3cccnc23)c1 [Example 146, N-[3-[2-(difluoromethoxy)-5-isopropylsulfanyl-phenyl]-1-[2-[4-(6,8-dihydro-5H-imidazo[1,2-a]pyrazin-7-yl)-1-piperidyl]-2-oxo-ethyl]pyrazol-4-yl]pyrazolo[1,5-a]pyrimidine-3-carboxamide]
Ki [1]: 0.72 nM
Ki [2]: 0.37 nM
IC50 [3]: 170 nM

CC(C)Sc1ccc(OC(F)F)c(-c2nn(CC(=O)N3CCC(N(CCN4CCOCC4)C4COC4)CC3)cc2NC(=O)c2cnn3cccnc23)c1 [Example 147, N-[3-[2-(difluoromethoxy)-5-isopropylsulfanyl-phenyl]-1-[2-[4-[2-morpholinoethyl(oxetan-3-yl)amino]-1-piperidyl]-2-oxo-ethyl]pyrazol-4-yl]pyrazolo[1,5-a]pyrimidine-3-carboxamide]
Ki [1]: 1.8 nM
Ki [2]: 0.73 nM
IC50 [3]: 1000 nM

CC(C)Sc1ccc(OC(F)F)c(-c2nn(Cc3cn(C4CCN(C5COC5)CC4)nn3)cc2NC(=O)c2cnn3cccnc23)c1 [Example 148, N-[3-[2-(difluoromethoxy)-5-isopropylsulfanyl-phenyl]-1-[[1-[1-(oxetan-3-yl)-4-piperidyl]triazol-4-yl]methyl]pyrazol-4-yl]pyrazolo[1,5-a]pyrimidine-3-carboxamide]
Ki [1]: 0.24 nM
Ki [2]: 0.4 nM
IC50 [3]: 55 nM

CC(C)Sc1ccc(OC(F)F)c(-c2nn(CC(=O)N3CCC(N4CCO[C@H](CO)C4)CC3)cc2NC(=O)c2cnn3cccnc23)c1 [Example 149, N-[3-[2-(difluoromethoxy)-5-isopropylsulfanyl-phenyl]-1-[2-[4-[(2S)-2-(hydroxymethyl)morpholin-4-yl]-1-piperidyl]-2-oxo-ethyl]pyrazol-4-yl]pyrazolo[1,5-a]pyrimidine-3-carboxamide]
Ki [1]: 1.2 nM
Ki [2]: 0.52 nM
IC50 [3]: 50 nM

COC(=O)N1CCN(CC2CCN(C(=O)Cn3cc(NC(=O)c4cnn5cccnc45)c(-c4cc(SC(C)C)ccc4OC(F)F)n3)CC2)CC1 [Example 150, methyl 4-[[1-(2-[3-[2-(difluoromethoxy)-5-(propan-2-ylsulfanyl)phenyl]-4-[pyrazolo[1,5-a]pyrimidine-3-amido]-1H-pyrazol-1-yl]acetyl)piperidin-4-yl]methyl]piperazine-1-carboxylate]
Ki [1]: 1.4 nM
Ki [2]: 0.6 nM
IC50 [3]: 15 nM

CC(C)Sc1ccc(OC(F)F)c(-c2nn(CC(=O)N3CCC(C(=O)N4CCNCC4)CC3)cc2NC(=O)c2cnn3cccnc23)c1 [Example 151, N-[3-[2-(difluoromethoxy)-5-isopropylsulfanyl-phenyl]-1-[2-oxo-2-[4-(piperazine-1-carbonyl)-1-piperidyl]ethyl]pyrazol-4-yl]pyrazolo[1,5-a]pyrimidine-3-carboxamide]
Ki [1]: 2.3 nM
Ki [2]: 0.54 nM
IC50 [3]: 960 nM

CC(C)Sc1ccc(OC(F)F)c(-c2nn(CC(=O)N3CCC(N4CCN(CC(=O)N5CCOCC5)CC4)CC3)cc2NC(=O)c2cnn3cccnc23)c1 [Example 152, N-[3-[2-(difluoromethoxy)-5-isopropylsulfanyl-phenyl]-1-[2-[4-[4-(2-morpholino-2-oxo-ethyl)piperazin-1-yl]-1-piperidyl]-2-oxo-ethyl]pyrazol-4-yl]pyrazolo[1,5-a]pyrimidine-3-carboxamide]
Ki [1]: 1.3 nM
Ki [2]: 0.52 nM
IC50 [3]: 290 nM

CC(C)Sc1ccc(OC(F)F)c(-c2nn(CC(=O)N3CCC(N4CCOC[C@H]4CO)CC3)cc2NC(=O)c2cnn3cccnc23)c1 [Example 153]
Ki [1]: 0.91 nM
Ki [2]: 0.41 nM
IC50 [3]: 110 nM
